Assay results published in PubChem BioAssay (NCI).
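Protocol summary: plate cells (96-well), add compound at 5 concentrations, incubate 48 h, interpolate endpoints linearly. The concentration for full growth arrest is given as TGI.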

Legend:
Assay in all cases: NCI anticancer screen, dose series, 48 h
[1] = test system: KM12 colon
[2] = test system: SF-268 CNS
[3] = test system: ACHN renal
[4] = test system: SW-620 colon
[5] = test system: SF-295 CNS
[6] = test system: SR leukemia
[7] = test system: NCI-H522 lung
[8] = test system: UACC-257 melanoma
[9] = test system: M14 melanoma
[10] = test system: CAKI-1 renal
[11] = test system: A498 renal
[12] = test system: HCT-116 colon
[13] = test system: MDA-N
[14] = test system: SK-MEL-28 melanoma
[15] = test system: EKVX NSCLC
[16] = test system: UACC-62 melanoma
[17] = test system: RPMI-8226 leukemia
[18] = test system: OVCAR-5 ovarian
[19] = test system: SNB-19 CNS
[20] = test system: HOP-92 NSCLC
[21] = test system: OVCAR-3 ovarian
[22] = test system: SK-OV-3 ovarian
[23] = test system: T-47D breast
[24] = test system: UO-31 renal
[25] = test system: OVCAR-4 ovarian
[26] = test system: DU-145 prostate
[27] = test system: SNB-75 CNS
[28] = test system: HOP-62 NSCLC
[29] = test system: CCRF-CEM leukemia
[30] = test system: NCI-H23 lung
[31] = test system: NCI/ADR-RES ovarian
[32] = test system: SN12C renal
[33] = test system: SF-539 CNS
[34] = test system: 786-0 renal
[35] = test system: MOLT-4 leukemia
[36] = test system: A549 NSCLC
[37] = test system: COLO 205 colon
[38] = test system: K-562 leukemia
[39] = test system: HCT-15 colon
[40] = test system: HCC-2998 colon
[41] = test system: MDA-MB-435
[42] = test system: RXF 393 renal
[43] = test system: OVCAR-8 ovarian
[44] = test system: BT-549 breast
[45] = test system: NCI-H460 lung
[46] = test system: MCF7 breast
[47] = test system: TK-10 renal
[48] = test system: HT29 colon
[49] = test system: HS 578T breast
[50] = test system: MALME-3M melanoma
[51] = test system: PC-3 prostate
[52] = test system: NCI-H226 lung
[53] = test system: U251 CNS
[54] = test system: IGROV1 ovarian
[55] = test system: SK-MEL-2 melanoma
[56] = test system: HL-60(TB) leukemia
[57] = test system: SK-MEL-5 melanoma
[58] = test system: MDA-MB-231 breast
[59] = test system: LOX IMVI melanoma

## Cc1n[nH]c(=O)n1/N=C/c1ccc(F)cc1
[1]
  TGI: > 100 µM
[2]
  TGI: > 100 µM
[3]
  TGI: > 100 µM
[4]
  TGI: > 100 µM
[5]
  TGI: > 100 µM
[6]
  TGI: > 100 µM
[7]
  TGI: > 100 µM
[8]
  TGI: > 100 µM
[9]
  TGI: > 100 µM
[10]
  TGI: > 100 µM
[11]
  TGI: > 100 µM
[12]
  TGI: > 100 µM
[13]
  TGI: > 100 µM
[14]
  TGI: > 100 µM
[15]
  TGI: > 100 µM
[16]
  TGI: > 100 µM
[17]
  TGI: > 100 µM
[18]
  TGI: > 100 µM
[19]
  TGI: > 100 µM
[20]
  TGI: > 100 µM
[21]
  TGI: > 100 µM
[22]
  TGI: > 100 µM
[23]
  TGI: > 100 µM
[24]
  TGI: > 100 µM
[25]
  TGI: > 100 µM
[26]
  TGI: > 100 µM
[27]
  TGI: > 100 µM
[28]
  TGI: > 100 µM
[29]
  TGI: > 100 µM
[30]
  TGI: > 100 µM
[31]
  TGI: > 100 µM
[32]
  TGI: > 100 µM
[33]
  TGI: > 100 µM
[34]
  TGI: > 100 µM
[35]
  TGI: > 100 µM
[36]
  TGI: > 100 µM
[37]
  TGI: > 100 µM
[38]
  TGI: > 100 µM
[39]
  TGI: > 100 µM
[40]
  TGI: > 100 µM
[41]
  TGI: > 100 µM
[42]
  TGI: > 100 µM
[43]
  TGI: > 100 µM
[44]
  TGI: > 100 µM
[45]
  TGI: > 100 µM

## COC(=O)C1=CSC2(S1)C(C(=O)OC)=CSc1c2ssc1=O (centres undefined)
[1]
  TGI: 12.8 µM
[2]
  TGI: 8.89 µM
[3]
  TGI: 3.61 µM
[4]
  TGI: 2.93 µM
[5]
  TGI: 40.5 µM
[7]
  TGI: 3.14 µM
[8]
  TGI: 4 µM
[9]
  TGI: 6.65 µM
[10]
  TGI: 10.7 µM
[11]
  TGI: 12.5 µM
[12]
  TGI: 3.16 µM
[13]
  TGI: 4.92 µM
[14]
  TGI: 5.23 µM
[46]
  TGI: 2.89 µM
[47]
  TGI: 6.13 µM
[48]
  TGI: 3.71 µM
[15]
  TGI: 14.5 µM
[16]
  TGI: 4.16 µM
[17]
  TGI: 4.24 µM
[18]
  TGI: 21.9 µM
[19]
  TGI: 16.1 µM
[20]
  TGI: 4.27 µM
[21]
  TGI: 3.55 µM
[22]
  TGI: 29.7 µM
[49]
  TGI: 12.3 µM
[24]
  TGI: 3.25 µM
[50]
  TGI: 6.18 µM
[25]
  TGI: 3.81 µM
[26]
  TGI: 3.3 µM
[51]
  TGI: 6.03 µM
[27]
  TGI: 8.16 µM
[28]
  TGI: 17 µM
[52]
  TGI: 44.9 µM
[29]
  TGI: 2.47 µM
[53]
  TGI: 3.02 µM
[30]
  TGI: 5.12 µM
[31]
  TGI: 8.35 µM
[32]
  TGI: 5.1 µM
[33]
  TGI: 3.17 µM
[34]
  TGI: 2.96 µM
[54]
  TGI: 2.9 µM
[35]
  TGI: > 19.8 µM
[55]
  TGI: 5.92 µM
[36]
  TGI: 28.3 µM
[56]
  TGI: 3.45 µM
[37]
  TGI: 4.03 µM
[38]
  TGI: > 23 µM
[57]
  TGI: 6.62 µM
[39]
  TGI: 3.31 µM
[40]
  TGI: 8.82 µM
[58]
  TGI: 4.13 µM
[41]
  TGI: 4.34 µM
[42]
  TGI: 3.62 µM
[43]
  TGI: 8.47 µM
[44]
  TGI: 12.9 µM
[45]
  TGI: 24.5 µM
[59]
  TGI: 3.35 µM

## CC[C@H](Nc1c(O)c2c(c(O)c1Cl)C(=O)C=CC2=O)C(=O)OC
[1]
  TGI: > 10 µM
[2]
  TGI: > 10 µM
[3]
  TGI: > 10 µM
[4]
  TGI: > 10 µM
[5]
  TGI: > 10 µM
[6]
  TGI: 7.74 µM
[7]
  TGI: > 10 µM
[8]
  TGI: > 10 µM
[9]
  TGI: > 10 µM
[10]
  TGI: > 10 µM
[12]
  TGI: 5.89 µM
[13]
  TGI: > 10 µM
[46]
  TGI: > 10 µM
[47]
  TGI: > 10 µM
[48]
  TGI: > 10 µM
[15]
  TGI: > 10 µM
[16]
  TGI: > 10 µM
[17]
  TGI: > 10 µM
[18]
  TGI: > 10 µM
[19]
  TGI: > 10 µM
[20]
  TGI: > 10 µM
[21]
  TGI: > 10 µM
[22]
  TGI: > 10 µM
[49]
  TGI: > 10 µM
[50]
  TGI: > 10 µM
[25]
  TGI: > 10 µM
[26]
  TGI: > 10 µM
[51]
  TGI: > 10 µM
[27]
  TGI: > 10 µM
[28]
  TGI: > 10 µM
[52]
  TGI: > 10 µM
[29]
  TGI: > 10 µM
[53]
  TGI: > 10 µM
[30]
  TGI: > 10 µM
[31]
  TGI: > 10 µM
[32]
  TGI: 9.16 µM
[33]
  TGI: 9.29 µM
[34]
  TGI: > 10 µM
[54]
  TGI: > 10 µM
[35]
  TGI: 9.57 µM
[55]
  TGI: > 10 µM
[36]
  TGI: > 10 µM
[56]
  TGI: 8.64 µM
[37]
  TGI: > 10 µM
[38]
  TGI: > 10 µM
[57]
  TGI: > 10 µM
[39]
  TGI: > 10 µM
[58]
  TGI: 9.76 µM
[41]
  TGI: > 10 µM
[43]
  TGI: > 10 µM
[44]
  TGI: > 10 µM
[45]
  TGI: > 10 µM
[59]
  TGI: > 10 µM

## CC(C)(C)[Si](C)(C)Oc1cc(CO)cc2c1cc(=N)o[n+]2[O-]
[1]
  TGI: > 10 µM
[2]
  TGI: > 10 µM
[4]
  TGI: > 10 µM
[5]
  TGI: > 10 µM
[6]
  TGI: 7.58 µM
[8]
  TGI: > 10 µM
[9]
  TGI: > 10 µM
[10]
  TGI: > 10 µM
[13]
  TGI: > 10 µM
[14]
  TGI: > 10 µM
[46]
  TGI: 9.25 µM
[47]
  TGI: > 10 µM
[48]
  TGI: > 10 µM
[15]
  TGI: > 10 µM
[16]
  TGI: > 10 µM
[17]
  TGI: > 10 µM
[22]
  TGI: > 10 µM
[23]
  TGI: > 10 µM
[50]
  TGI: > 10 µM
[26]
  TGI: > 10 µM
[51]
  TGI: > 10 µM
[27]
  TGI: > 10 µM
[28]
  TGI: > 10 µM
[29]
  TGI: > 10 µM
[30]
  TGI: > 10 µM
[32]
  TGI: > 10 µM
[34]
  TGI: > 10 µM
[54]
  TGI: > 10 µM
[35]
  TGI: 9.28 µM
[36]
  TGI: > 10 µM
[56]
  TGI: > 10 µM
[37]
  TGI: > 10 µM
[38]
  TGI: > 10 µM
[57]
  TGI: > 10 µM
[39]
  TGI: > 10 µM
[40]
  TGI: > 10 µM
[58]
  TGI: > 10 µM
[42]
  TGI: > 10 µM
[43]
  TGI: > 10 µM
